This is an account of results in PubChem BioAssay (NCI).

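The compound was tested at five concentrations on cells cultured in 96-well plates, with a 48-hour exposure period. Abbreviation: GI50, concentration required for 50% inhibition of growth. TGI marks complete inhibition of growth.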 Where only a bound is given, the exact number is not on record here.

Assay in all cases: NCI-60 cell line screen, 48 h
Assay [1] concerns EKVX NSCLC.
Assay [2] concerns HOP-92 NSCLC.
Assay [3] relates to M14 melanoma.
The test system of assay [4] is NCI-H226 lung.
The subject of assay [5] is NCI-H460 lung.
Assay [6] concerns OVCAR-3 ovarian.
Assay [7] deals with SF-268 CNS.
The subject of assay [8] is SK-MEL-5 melanoma.
The test system of assay [9] is SN12C renal.
Assay [10] has as its system T-47D breast.

As to `CC(C)(O)CS(=O)(=O)Nc1ccc2c(c1)CCN(C(=O)COc1cccnc1)C2`, the GI50 in [1] is greater than 100 µM; in assay [2] it was 97.5 µM; in [3], 0.153 µM; in assay [4], greater than 100 µM; in assay [5], 11.5 µM; in [6], greater than 100 µM. The GI50 in [7] is greater than 100 µM; in assay [8] it was greater than 100 µM; in [9] it was 0.0677 µM; in assay [10], greater than 35.2 µM. The TGI in assay [1], in [2], in assay [3], in assay [4], in assay [5] and in [6] was greater than 100 µM in each case. In addition, the TGI in [7], in [8], in [9] and in [10] was greater than 100 µM in each case.

Take `C=C(CN1C(=O)[C@H]2CCCN2C(=O)c2ccccc21)c1ccc(C(=O)O)cc1`: the GI50 in assay [1], in assay [2], in assay [3], in assay [4], in [5] and in assay [6] was greater than 100 µM throughout. The GI50 in assay [7], in assay [8], in assay [9] and in [10] was greater than 100 µM each time. Moreover, the TGI in [1], in [2], in [3], in assay [4], in [5] and in [6] was greater than 100 µM in each case. In addition, the TGI in assay [7], in [8], in assay [9] and in assay [10] was greater than 100 µM each time.

For `O=C1/C(=C/c2ccccc2)CN(C(=O)c2cccnc2)C/C1=C\c1ccccc1`, the GI50 in [1] was 2.86 µM; in assay [2], 10.9 µM; in [3], 1.93 µM; in assay [4], 3.12 µM; in assay [5], 2.58 µM; in assay [6] it was 0.505 µM. The GI50 is 2.78 µM in assay [7], 1.8 µM in [8], 2.39 µM in assay [9] and 2.92 µM in assay [10]. Besides, the TGI in assay [1] worked out at 11.1 µM; in [2] it was 23.6 µM; in assay [3] it was 5.17 µM; in [4], 9.79 µM; in assay [5], 11 µM; in [6], 1.71 µM. Further, the TGI stood at 13.7 µM in assay [7], 3.68 µM in assay [8], 7.96 µM in assay [9] and 12.2 µM in [10].

As to `Cc1cc2nc3c4cc(N)ccc4n(CCN(C)C)c3nc2cc1C`, the GI50 in assay [1] was 1.59 µM; in assay [2], 0.527 µM; in assay [3], 1.12 µM; in assay [4], 0.896 µM; in [5], 0.402 µM; in [6], 1.39 µM. The GI50 in [7] is 1.43 µM; in assay [8] it was 1.48 µM; in [9], 0.484 µM; in assay [10] it was 1.71 µM. Besides, the TGI in [1] was found to be 12.5 µM; in assay [2] it was 5.05 µM; in [3], 2.88 µM; in [4] it was 4.1 µM; in assay [5], 2.95 µM; in assay [6], 6.87 µM. The TGI in assay [7] was 6.89 µM; in assay [8], 2.88 µM; in assay [9], 11.7 µM; in assay [10] it was 12.3 µM.

For `N[C@@H]1CCCC[C@H]1N.O=C([O-])C(=O)[O-].[Pt+4]`, the GI50 is 88.7 µM in assay [1]; 25.5 µM in [2]; 7.22 µM in [3]; 2.55 µM in [4]; 0.435 µM in assay [5]; 5.71 µM in assay [6]. The GI50 was 4.12 µM in assay [7], 1.14 µM in assay [8], 2.56 µM in [9] and 2.21 µM in assay [10]. Moreover, the TGI in [1] was greater than 100 µM; in [2], greater than 74 µM; in [3] it was 45.1 µM; in [4] it was 17 µM; in [5], 38.3 µM; in assay [6] it was 25.9 µM. Also, the TGI was greater than 100 µM in assay [7], 13.3 µM in assay [8], greater than 100 µM in assay [9] and greater than 100 µM in [10].

With `O=C(Nc1cccc(Cl)c1)c1ccc(NC2=C(Cl)C(=O)N(Cc3ccccc3)C2=O)cc1`, the GI50 in assay [1] is greater than 46 µM; in assay [2], 9.09 µM; in [3], 16.6 µM; in assay [4], 14.8 µM; in assay [5], 9.11 µM; in assay [6] it was 6.08 µM. Moreover, the GI50 in assay [7] is 8.93 µM; in assay [8], 7.81 µM; in [9] it was 7.77 µM; in assay [10], 17.8 µM. Besides, the TGI in assay [1] is greater than 69.3 µM; in assay [2], 29.5 µM; in [3] it was 37.3 µM; in assay [4] it was 31 µM; in assay [5] it was greater than 50.9 µM; in [6], 13.8 µM. Also, the TGI is 25.3 µM in [7], 19.4 µM in assay [8], 23 µM in assay [9] and greater than 54.4 µM in [10].

Turning to `C/C(=N/Nc1nc2ccccc2n1C)c1ccccn1`, the GI50 was 0.0418 µM in assay [1]; 0.261 µM in assay [2]; 0.0489 µM in [3]; 0.0584 µM in [4]; 0.133 µM in [5]; less than 0.0153 µM in assay [6]. The GI50 in assay [7] was 0.202 µM; in assay [8] it was 0.162 µM; in assay [9], 0.106 µM; in [10], less than 0.0144 µM. For the same compound, the TGI came to 13.5 µM in assay [1]; 20 µM in assay [2]; 0.285 µM in assay [3]; 4.69 µM in [4]; 1.95 µM in [5]; 14.1 µM in assay [6]. In addition, the TGI in assay [7] was greater than 35.6 µM; in assay [8], 3.96 µM; in assay [9] it was 23 µM; in [10], 11.6 µM.

Turning to `O=c1ccn(C2OC(CO/N=C/c3ccc(O)c(O)c3O)C(O)C2O)c(=O)[nH]1` (stereo not given), the GI50 in assay [1] is 33.9 µM; in [2], greater than 100 µM; in assay [3], 39 µM; in assay [4] it was greater than 100 µM; in assay [5] it was greater than 100 µM; in assay [6], 13.6 µM. In addition, the GI50 is 26.5 µM in assay [7], 19.4 µM in assay [8], 20.1 µM in assay [9] and 21.8 µM in assay [10]. For the same compound, the TGI is greater than 100 µM in [1]; greater than 100 µM in [2]; greater than 100 µM in assay [3]; greater than 100 µM in [4]; greater than 100 µM in assay [5]; 27.7 µM in [6]. Further, the TGI in [7] stood at 85.6 µM; in assay [8] it was 33.5 µM; in assay [9], 38.7 µM; in assay [10], 50.3 µM.

Regarding `Ic1ccccc1-c1ccccc1`, the GI50 in [1] is greater than 100 µM; in [2], 13.2 µM; in [3], greater than 100 µM; in assay [4] it was greater than 100 µM; in [5] it was greater than 100 µM; in assay [6], greater than 100 µM. The GI50 in assay [7] was greater than 100 µM; in assay [8] it was greater than 100 µM; in [9] it was greater than 100 µM; in assay [10] it was 70.5 µM. For the same compound, the TGI in assay [1], in [2], in [3], in assay [4], in [5] and in assay [6] was greater than 100 µM throughout. Besides, the TGI in assay [7], in assay [8], in assay [9] and in [10] was greater than 100 µM throughout.
